Measurements from patent US7968607B2, “Skin pore minimizers and skin elasticity improvers” (Koa Corporation, priority 2000, dated 2011).
Structures can show the parent of a compound that is named as a salt.

What was measured:
[1] = system: human skin fibroblasts (derived from a human fore skin); experiment: Collagen gel tightening promoting ability (fibroblast-embedded collagen gel, dermis model); type: cell-based; conditions: Homo sapiens, Skin fibroblast, 48 hours, relative volume, control = 100%
Description: Measurement was conducted on the ability to promote the tightening of a fibroblast-embedded collagen gel as a dermis model. The collagen gel was prepared following the procedure reported in a publication [J. Cell Science, 102, 315 (1992) or J. Invest. Dermatol., 93, 792 (1989)]. Described specifically, a solution of HEPES (250 mM) in a 0.05 N sodium hydroxide solution, a 5-fold concentrate of DMEM (“GIBCO DMEM”, low glucose), FCS (2%, Fetal Calf Serum) and purified water were added under ice cooling to a collagen gel solution (product of Nitta Gelatin Inc., “type 1-A” (3.0 mg/mL, pH=3)), and finally, a suspension of human skin fibroblasts (derived from a human fore skin) was added. After the resulting mixture was thoroughly stirred to eliminate bubbles, 600 μL per well was added to 24-well dishes, followed by immediate warming at 37° C. in an incubator to effect gelation. Three to four hours later, 1 mL of serum-free DMEM medium was added to each of the wells, and the gels were separated at peripheries thereof from the corresponding dishes and were brought into a floating state. Eighteen hours after that, the medium was replaced with serum-free DMEM media which contained 100 to 10 μM of test substances, respectively, and incubation was conducted further for 48 hours.
Volume measurement of the gels was conducted by a weight measuring method similar to that reported in the publication [J. Cell Science, 102, 315 (1992)]. Described specifically, subsequent to immobilization with 10% formalin (4° C., 24 hours), the surface tension of water was reduced by the addition of Triton X100 (product of Wako Pure Chemical Industries) (1%), and the weights were measured.
Measurement results of relative volumes for the respective compounds as calculated supposing that the volume of the control was 100% are presented in Table 3.

[2] = system: dorsal skin of HR rats (WBN/ILA-HT); experiment: Rat skin elasticity improving (tightening) effect, cutometer; type: in vivo; conditions: 2% solution in 10% ethanol sprayed on dorsal skin, 0.7 mL, 7 to 8 times a week, two weeks
[3] = system: dorsal skin of HR rats (WBN/ILA-HT); experiment: as above; type: in vivo; conditions: for Ur/Uf / Ue (instantaneous elastic displacement) / Uf (final displacement) / Ur (instantaneous recovery displacement): 2% solution in 10% ethanol, two weeks; for Ur/Uf: cutometer; for Ue (instantaneous elastic displacement) / Uf (final displacement) / Ur (instantaneous recovery displacement): cutometer 100 hpa, 5 s suction, 2 s release; for skin elasticity / skin tightening effect: when applied, from Table 4 and Table 5
Description: Onto the entire dorsal skins of HR rats (WBN/ILA-HT, 7 weeks old), 2% solutions of Compounds 1 and 4 (solvent: 10% ethanol) were applied in the form of spray, respectively, once or twice a day, 7 to 8 times a week in total, in an amount of 0.7 mL each time. As a control, 10% ethanol solution was used. Two weeks later, the skin elasticity of the skin at a central dorsal part at a site slightly rightward of the median line of each HR rat was measured under Nembutal anesthesia by using a cutometer (“CUTOMETER SEM474”, Courage+Khazaka Electronic GmbH). The measurement was conducted by setting the suction pressure, suction time and release time at 100 hpa, 5 seconds and 2 seconds, and an instantaneous elastic displacement Ue, an instantaneous recovery displacement Ur and a final displacement Uf were recorded. Based on changes in the skin elasticity, skin tightening effect was determined. Ue is an index of elasticity, while Uf is an index of softness and malleability. Both of these values decrease on the face or the like upon aging, and also decrease when the skin is in a swollen state. Increases in these values, therefore, can be taken as an indication of a state that the skin is in a tightened state with its softness, melleability and elasticity having been increased further. Ur is also an index of elasticity, and decreases when the skin is in a saggy state or a swollen state. Similarly, an increase in this value serves as an indication of a state that the skin is in a tightened state with its elasticity and tightness having been increased further. Further, Ur/Uf is also an index of the elasticity of the skin, and like Ur, decreases when the skin becomes saggy or is swollen. Moreover, Ur/Uf is known to decrease upon aging irrespective of the face or body site, and is an important index of sagginess.

[4] = system: human skin fibroblasts (derived from a human fore skin); experiment: Collagen gel tightening promoting ability (fibroblast-embedded collagen gel, dermis model); type: cell-based; conditions: 48 hours, relative volume, control = 100%

| SMILES | activity at 10 µM [1] [%] | activity at 30 µM [1] [%] | Skin thickness (mm) [2] [mm] | Ur/Uf [3] | Ue (instantaneous elastic displacement) [3] | Uf (final displacement) [3] | Ur (instantaneous recovery displacement) [3] | skin elasticity / skin tightening effect [3] | activity at 3 µM [4] [%] | activity at 15 µM ([1]; 15 μM, read-out: Average gel volume) [%] | activity at 50 µM ([1]; 50 μM, read-out: Average gel volume) [%] |
| --- | --- | --- | --- | --- | --- | --- | --- | --- | --- | --- | --- |
| CCCCCCCCCCCCOCC(O)COS(=O)(=O)[O-].[Na+] (stereo not shown) [Compound 1, 1-dodecylglycerol-3-sulfate sodium salt] | 93 | 85 | 0.820 | 0.540 | 0.113 | 0.159 | 0.834 | increased the skin elasticity and exhibited skin tightening effect | – | – | – |
| CC(C)CCCCCCCCCCCCCCCOCC(O)COS(=O)(=O)O (stereo not shown) [Compound 3, 1-isostearylglycerol-3-sulfate sodium salt] | 74 | 95 | – | – | – | – | – | – | 86 | – | – |
| CCCCCCCCCCOCC(O)COP(=O)([O-])[O-].[Na+].[Na+] (stereo not shown) [Compound 4, 1-decylglycerol-3-phosphate disodium salt] | – | – | 0.725 | 0.401 | 0.225 | 0.275 | 0.109 | increased the skin elasticity and exhibited skin tightening effect | – | 96 | 88 |
